From patent US9089526B2, “Pharmaceutical product and analysis model for hormone replacement therapy for women and prevention of some cancers and uterine myomas” (Universidad de Chile, priority 2009, dated 2015)

Assays:
[1] = system: human MCF-7 mammary cancer cells; experiment: In vitro growth (sulforhodamine B) assay, MCF-7 cells; type: cell-based; settings: 72 h
Experimental: (§1) Cell lines. The experimental cell cultures were obtained from American Type Culture Collection (Rockville, Md., USA). MCF-7 and MDA-MB231 cells (estrogen receptor positive and negative respectively breast cancer cells) were grown in Dulbecco's modified Eagle's medium (DMEM) containing 10% FCS, 100 U/ml penicillin, 100 μg/ml streptomycin and 1 mM glutamine. Cells were seeded into 96 well microtiter plates in 100 μl at plating density of 3×10^3 cells/well. After 24 h incubation at 37° C. under a humidified 5% carbon dioxide to allow cell attachment, the cells were washed with phenol red-free and the medium was changed to phenol red-free DMEM supplemented with 4% dextran-charcoal-stripped foetal calf serum (DCFCS). Then the cells were treated with different concentrations of drugs and incubated for 72 h under the same conditions. Stock solution of compounds was prepared in ethanol and the final concentration of this solvent was kept constant at 1%. Control cultures received 1% ethanol alone.
(§2) In vitro growth inhibition assay. The sulforhodamine B assay was used according to the method of Skehan et al. 1990 (48) with some modifications (49). […] Protein-bound stain was solubilized with 100 μl of 10 mM unbuffered Tris base, and the cell density was determined using a […] (wavelength 540 nm). […]

rat uterus [2] = experiment: Modification of estradiol-induced uterine responses in prepubertal female rats, substance given 1 h before estradiol-17β; type: in vivo; settings: for Estrogen-induced endometrial edema: pretreatment 1 h before estradiol 0.33 mg/kg s.c.
Experimental: (§3) Prepubertal female rats were treated s.c. with the vehicle (C) (0.3 mL 1:9 ethanol saline), or a phytoestrogenic preparation, followed after one hour by estradiol-17β (E) Merck (0.33 mg/kg b.wt.), or its vehicle. Among the phytoestrogenic compounds used, genistein (G) Sigma (0.5 mg/kg b.wt.), two different concentrations of soybean ethanol extracts (S): 0.06 (Sd) and 0.364 (Sc) mg genistin/kg b.wt., and extracts, decoctions or extract sub-fractions of various plant species. Genistein quantification was based in the indirect valoration of genistein following 2M HCl hydrolysis and genistein quantification by HPLC (45, 46). […] Uteri were excised under ether anesthesia and histologically processed for eosinophil quantification and morphometric analysis of different parameters of estrogen action (22, 34). The following parameters were quantified in the uterus: total uterine eosinophilia (6), percentage of eosinophils according to the distribution in different uterine histological layers and to their degree of degranulation (10, 14); deep endometrial and superficial endometrial edema (47); luminal epithelial, glandular epithelial (34) and myometrial (47) cell hypertrophy, luminal epithelial RNA content (34), and number of mitotic figures for each uterine cell-type.
(§4) Statistics: According to previous studies (14) using the Tukey test of additivity (50), data on some parameters of estrogen stimulation needs to be submitted to logarithmic transformation or to square or cubic root transformation to normalize distribution. Accordingly, the transformations were performed on some of the parameters of estrogen stimulation investigated (14). Transformed and non-transformed data were subjected to further statistical analysis.
(§5) Since multiple comparisons were performed between the different experimental conditions, transformed and non-transformed data (all parameters except eosinophil degranulation and eosinophil distribution between uterine tissue layers) were subjected to the least significant difference a posteriori (LSD) test. The common variance needed for this test was estimated from a one-way unbalanced analysis of variance (ANOVA).
(§6) In uterine eosinophil degranulation and distribution studies, the χ^2 statistic was used to evaluate differences between the proportions.

[3] = system: human MDAMB-231 mammary cancer cells; experiment: In vitro growth (sulforhodamine B) assay, MDAMB-231 cells; type: cell-based; settings: 72 h
Experimental: as §1, §2

rat uterus [4] = experiment: Estrogenic (agonist) responses in the uterus of prepubertal female rats, substance alone; type: in vivo; settings: s.c.
Experimental: as §3, §4, §5, §6

[5] = substance alone, absence of estradiol
[6] = pretreatment 1 h before estradiol, compared to estradiol alone
[7] = pretreatment 1 h before estradiol, mitoses

Compound: O=c1c(-c2ccc(O)cc2)coc2cc(O)cc(O)c12 [G, genistein]
- Cell proliferation of cultured MCF-7 cells [1, 5]: increased
- Cell proliferation of cultured MCF-7 cells ([1]; substance plus estradiol): cell proliferation induced by genistein plus estradiol is higher than that of estradiol alone
- Estrogen-induced endometrial edema (rat uterus [2]; 6 h of treatment): antagonizes
- Estrogen-induced endometrial edema (rat uterus [2]; 24 h of treatment): not at 24 h
- Estrogen-induced uterine eosinophilia (rat uterus [2]; pretreatment 1 h before estradiol, 6 and 24 h considered together): mainly at 6 h of treatment
- Estrogen-induced eosinophilia in the endometrial layer only (rat uterus [2]; pretreatment 1 h before estradiol, 6 or 24 h): decrease in eosinophils under estrogen treatment is stronger
- Degranulation of uterine eosinophils in estrogen-treated rats (rat uterus [2]; [6]): decreases the degranulation
- Proportion of uterine eosinophils by location (endometrium/myometrium vs mesometrium) in estrogen-treated rats (rat uterus [2]; [6]): decrease in the proportion of eosinophils located in endometrium with myometrium
- Estrogen-induced cell proliferation in endometrial stroma (rat uterus [2]; [7]): almost completely block
- Estrogen-induced cell proliferation in myometrium (rat uterus [2]; [7]): almost completely block
- Estrogen-induced cell proliferation in uterine luminal epithelium (rat uterus [2]; [7]): almost completely block
- Cell proliferation of cultured MDAMB-231 cells [3, 5]: slightly inhibited
- Cell proliferation of cultured MDAMB-231 cells ([3]; substance plus estradiol): in association with estradiol the inhibitory effect is stronger than that of genistein alone
- Edema in deep endometrial stroma (rat uterus [4]; 6 h (FIG. 4)): not by G or S
- Proportion of uterine eosinophils located in the mesometrium and in the endometrium with myometrium (rat uterus [4]; 6 h (FIG. 6)): all the eosinophils were in the mesometrium
- Endometrial luminal epithelial cell hypertrophy (rat uterus [4]; 24 h (FIG. 2)): response similar to E
- Endometrial luminal epithelial cell RNA content (rat uterus [4]; 24 h (FIG. 3)): response similar to E
- Cell proliferation (number of mitotic figures) in myometrium (rat uterus [4]; 24 h (FIG. 11)): not by G, Sd or Sc
- Myometrial hypertrophy (rat uterus [4]; uteri excised 24 h after treatment (FIG. 1)): response similar to E
